Data as given in publication PMC6691761, “Potential multifunctional agents with anti-hepatoma and anti-inflammation properties by inhibiting NF-кB activation” (Journal of Enzyme Inhibition and Medicinal Chemistry, 2019).

Tests used:
Type in all cases: cell-based
[1] = test system: human normal hepatic cell line (LO2); experiment: Toxicity to normal cells, MTT assay, LO2; conditions: 24 h
Text: (§1) Compounds 83–102 were screened against human neoplastic cell lines, such as human breast cancer cells (MCF-7), human colon cancer cells (HCT116), human lung carcinoma cells (A549), human gastric adenocarcinoma cells (SGC7901), human liver hepatocellular carcinoma cell line (HepG2), human cervical carcinoma cells (HeLa), human acute mononuclear granulocyte leukaemia (THP-1), and human normal hepatic cell line (LO2) using modified MTT assay. All the cells were obtained from the American Type Culture Collection (ATCC, Manassas, VA). The cells were cultured in DMEM or 1640. Positive controls (Doxorubicin (DOX) and Curcumin) and BAPs were initially dissolved in dimethyl sulphoxide (DMSO). Experimental concentration of DMSO was always 0.1% (v/v). The concentrations of BAPs and positive controls were 50, 20, 10, 5, 2.5, 1, 0.5, 0.1, 0.05, and 0.01 μg/mL.
(§2) The cells (1 × 10^4 cells/well) were seeded in a 96-well plate and incubated for 24 h. Cells treated with serial concentrations of drugs were incubated for another 24 h. After the media removed, 20 μL of MTT (5 mg/mL) solution was added and incubated for 4 h at 37 °C. The MTT solution was removed and then 150 μL of DMSO was added. The optical density was measured with a multi-well plate reader (TECAN, Mӓnnedorf, Switzerland) at 570 nm. The results are expressed as a decrease in the cell viability (%) in comparison to untreated controls. The concentration of each compound was examined in triplicate, and the IC50 values are expressed in Table 1.

[2] = test system: human gastric adenocarcinoma cells (SGC7901); experiment: Cytotoxicity, MTT assay, SGC7901; conditions: for IC50: MTT, 24 h; for SGC7901 SI (selectivity index): quotient of IC50 towards LO2 cells
Text: as §1, §2

[3] = test system: human liver hepatocellular carcinoma cell line (HepG2); experiment: Cytotoxicity, MTT assay, HepG2; conditions: for IC50: MTT, 24 h; for HepG2 SI (selectivity index): quotient of IC50 towards LO2 cells
Text: as §1, §2

[4] = test system: human acute mononuclear granulocyte leukaemia (THP-1); experiment: Cytotoxicity, MTT assay, THP-1; conditions: for IC50: MTT, 24 h; for THP-1 SI (selectivity index): quotient of IC50 towards LO2 cells
Text: as §1, §2

[5] = test system: human cervical carcinoma cells (HeLa); experiment: Cytotoxicity, MTT assay, HeLa; conditions: for IC50: MTT, 24 h; for HeLa SI (selectivity index): quotient of IC50 towards LO2 cells
Text: as §1, §2

[6] = test system: TNF-α production in LPS-stimulated RAW264.7 cells; experiment: TNF-α production in LPS-stimulated RAW264.7 cells, ELISA
Procedure: The anti-inflammatory activities of BAPs were evaluated by ELISA. After pretreated with 30 μM of positive drug pyrrolidinedithiocarbamate (PDTC) or 6 μM of BAPs for 2 h, cells were treated with LPS (1.0 μg/mL) for 22 h. The culture media were collected and centrifuged for detecting the expression levels of TNF-α by an ELISA kit (eBioScience, San Diego, CA).
TNF-α is a common pro-inflammatory factors that can be produced by LPS-stimulated RAW264.7 macrophage[14]^,[24]. In order to evaluate the anti-inflammatory activity of BAPs, the effect of BAPs on TNF-α production in LPS-stimulated RAW264.7 cells was detected by ELISA. […] Only 92 presented slightly lower expression of TNF-α secretion (about 57%).

[7] = test system: human lung carcinoma cells (A549); experiment: Cytotoxicity, MTT assay, A549; conditions: for IC50: MTT, 24 h; for A549 SI (selectivity index): quotient of IC50 towards LO2 cells
Text: as §1, §2

[8] = test system: human colon cancer cells (HCT116); experiment: Cytotoxicity, MTT assay, HCT116; conditions: for IC50: MTT, 24 h; for HCT116 SI (selectivity index): quotient of IC50 towards LO2 cells
Text: as §1, §2

[9] = test system: human breast cancer cells (MCF-7); experiment: Cytotoxicity, MTT assay, MCF-7; conditions: for IC50: MTT, 24 h; for MCF-7 SI (selectivity index): quotient of IC50 towards LO2 cells
Text: as §1, §2

[10] = BAPs 6.0 μM, PDTC 30 μM, LPS 1.0 μg/mL

## CN1CC(=Cc2cccc(N=Cc3cc([N+](=O)[O-])ccc3F)c2)C(=O)C(=Cc2ccccc2F)C1 [Compound 97]
[1]
  IC50: 11.8 ± 0.4 µM
[2]
  IC50: 3.4 ± 0.8 µM
  SGC7901 SI (selectivity index): 3.5
[3]
  IC50: 4.2 ± 0.5 µM
  HepG2 SI (selectivity index): 2.8
[4]
  IC50: 8.1 ± 0.4 µM
  THP-1 SI (selectivity index): 1.5
[5]
  IC50: 5.1 ± 1.2 µM
  HeLa SI (selectivity index): 2.3
[6]; [10]
  TNF-α secretion: 45%
[7]
  IC50: 5.7 ± 0.4 µM
  A549 SI (selectivity index): 2.1
[8]
  IC50: 11.7 ± 0.2 µM
  HCT116 SI (selectivity index): 1.0
[9]
  IC50: 10.7 ± 0.1 µM
  MCF-7 SI (selectivity index): 1.1

## CN1CC(=Cc2cccc(N=Cc3ccc(O)c(O)c3O)c2)C(=O)C(=Cc2ccccc2F)C1 [Compound 100]
[1]
  IC50: 19.8 ± 0.3 µM
[2]
  IC50: 3.6 ± 0.1 µM
  SGC7901 SI (selectivity index): 5.5
[3]
  IC50: 8.8 ± 0.4 µM
  HepG2 SI (selectivity index): 2.3
[4]
  IC50: 7.7 ± 0.1 µM
  THP-1 SI (selectivity index): 2.6
[5]
  IC50: 11.9 ± 0.2 µM
  HeLa SI (selectivity index): 1.7
[6]; [10]
  TNF-α secretion: 45%
[7]
  IC50: 1.9 ± 0.2 µM
  A549 SI (selectivity index): 10.4
[8]
  IC50: 11.9 ± 0.1 µM
  HCT116 SI (selectivity index): 1.7
[9]
  IC50: 7.7 ± 0.2 µM
  MCF-7 SI (selectivity index): 2.6

## CN1C/C(=C\c2cccc(N)c2)C(=O)/C(=C/c2ccccc2F)C1 [Compound 92, (3E,5E)-3-(3-aminobenzylidene)-5-(2-fluorobenzylidene)-1-methylpiperidin-4-one]
[1]; Homo sapiens
  IC50: 18.9 ± 0.7 µM
[2]; Homo sapiens, SGC-7901
  IC50: 2.8 ± 0.2 µM
[2]
  SGC7901 SI (selectivity index): 6.8
[3]; Homo sapiens, HepG2, 24 h
  IC50: 1.1 ± 0.1 µM
[4]; Homo sapiens, THP-1, 24 h
  IC50: 1.2 ± 0.2 µM
[5]; Homo sapiens, HeLa
  IC50: 2.5 ± 0.2 µM
[6]; 6.0 μM, 2 h pretreatment, LPS 1.0 μg/mL 22 h, ELISA
  TNF-α secretion (percent of LPS control): about 57%
[7]; Homo sapiens, A549, 24 h
  IC50: 2.2 ± 0.1 µM
[7]
  A549 SI (selectivity index): 8.6
[8]; Homo sapiens, HCT-116
  IC50: 3.1 ± 0.3 µM
[9]; Homo sapiens, MCF7
  IC50: 2.8 ± 0.3 µM
[9]
  MCF-7 SI (selectivity index): 6.8

## COc1cc(/C=C/C(=O)CC(=O)/C=C/c2ccc(O)c(OC)c2)ccc1O [Curcumin, reference compound]
[1]; Homo sapiens
  IC50: 28.3 ± 1.2 µM
[2]; Homo sapiens, SGC-7901
  IC50: 22.8 ± 0.6 µM
[2]
  SGC7901 SI (selectivity index): 1.2
[3]; Homo sapiens, HepG2, 24 h
  IC50: 20.7 ± 0.1 µM
[3]
  HepG2 SI (selectivity index): 1.4
[4]; Homo sapiens, THP-1, 24 h
  IC50: 20.8 ± 0.6 µM
[4]
  THP-1 SI (selectivity index): 1.4
[5]; Homo sapiens, HeLa
  IC50: 19.4 ± 0.6 µM
[5]
  HeLa SI (selectivity index): 1.5
[7]; Homo sapiens, A549, 24 h
  IC50: 22.7 ± 1 µM
[7]
  A549 SI (selectivity index): 1.2
[8]; Homo sapiens, HCT-116
  IC50: 17.2 ± 0.3 µM
[8]
  HCT116 SI (selectivity index): 1.6
[9]; Homo sapiens, MCF7
  IC50: 20.5 ± 0.2 µM
[9]
  MCF-7 SI (selectivity index): 1.4

## CN1CC(=Cc2cccc(N=Cc3cc(O)ccc3O)c2)C(=O)C(=Cc2ccccc2F)C1 [Compound 99]
[1]
  IC50: 15.6 ± 0.4 µM
[2]
  IC50: 4.7 ± 0.3 µM
  SGC7901 SI (selectivity index): 3.3
[3]
  IC50: 8.2 ± 0.1 µM
  HepG2 SI (selectivity index): 1.9
[4]
  IC50: 7.8 ± 0.4 µM
  THP-1 SI (selectivity index): 2.0
[5]
  IC50: 15.3 ± 1.1 µM
  HeLa SI (selectivity index): 1.0
[7]
  IC50: 4.4 ± 0.1 µM
  A549 SI (selectivity index): 3.5
[8]
  IC50: 7.42 ± 0.1 µM
  HCT116 SI (selectivity index): 2.1
[9]
  IC50: 5.9 ± 0.2 µM
  MCF-7 SI (selectivity index): 2.6

## CN1CC(=Cc2cccc(N=Cc3ccc(Cl)cc3)c2)C(=O)C(=Cc2ccccc2F)C1 [Compound 94]
[1]
  IC50: 18 ± 0.3 µM
[2]
  IC50: 6.4 ± 0.1 µM
  SGC7901 SI (selectivity index): 2.8
[3]
  IC50: 4.8 ± 0.1 µM
  HepG2 SI (selectivity index): 3.8
[4]
  IC50: 4 ± 0.1 µM
  THP-1 SI (selectivity index): 4.5
[5]
  IC50: 11.1 ± 0.3 µM
  HeLa SI (selectivity index): 1.6
[7]
  IC50: 5.9 ± 0.3 µM
  A549 SI (selectivity index): 3.1
[8]
  IC50: 6.3 ± 0.1 µM
  HCT116 SI (selectivity index): 2.9
[9]
  IC50: 6.5 ± 0.1 µM
  MCF-7 SI (selectivity index): 2.8

## CN1CC(=Cc2cccc(N=Cc3cc(F)ccc3O)c2)C(=O)C(=Cc2ccccc2F)C1 [Compound 93]
[1]
  IC50: 15.1 ± 0.7 µM
[2]
  IC50: 2.8 ± 0.5 µM
  SGC7901 SI (selectivity index): 5.4
[3]
  IC50: 2.2 ± 0.2 µM
  HepG2 SI (selectivity index): 6.9
[4]
  IC50: 2.4 ± 0.5 µM
  THP-1 SI (selectivity index): 6.3
[5]
  IC50: 3 ± 0.1 µM
  HeLa SI (selectivity index): 5.0
[6]; [10]
  Inhibition of TNF-α secretion compared with PDTC (in words): superior to PDTC group
  TNF-α secretion: 45%
[7]
  IC50: 3.7 ± 0.1 µM
  A549 SI (selectivity index): 4.1
[8]
  IC50: 2.5 ± 1.8 µM
  HCT116 SI (selectivity index): 6.0
[9]
  IC50: 3.8 ± 0.9 µM
  MCF-7 SI (selectivity index): 4.0

## CN1C/C(=C\c2cccc([N+](=O)[O-])c2)C(=O)/C(=C/c2ccc(F)cc2F)C1 [Compound 84]
[1]
  IC50: 19.3 ± 0.3 µM
[2]
  IC50: 7.6 ± 0.8 µM
  SGC7901 SI (selectivity index): 2.5
[3]
  IC50: 8.2 ± 0.3 µM
  HepG2 SI (selectivity index): 2.4
[4]
  IC50: 11.8 ± 0.2 µM
  THP-1 SI (selectivity index): 1.6
[5]
  IC50: 10.2 ± 0.2 µM
  HeLa SI (selectivity index): 1.9
[7]
  IC50: 6.2 ± 0.3 µM
  A549 SI (selectivity index): 3.1
[8]
  IC50: 9.5 ± 0.1 µM
  HCT116 SI (selectivity index): 2.0
[9]
  IC50: 8.5 ± 0.2 µM
  MCF-7 SI (selectivity index): 2.3

## CN1C/C(=C\c2cccc([N+](=O)[O-])c2)C(=O)/C(=C/c2ccc(F)cc2Br)C1 [Compound 87]
[1]
  IC50: 13.7 ± 0.5 µM
[2]
  IC50: 4.7 ± 0.3 µM
  SGC7901 SI (selectivity index): 2.9
[3]
  IC50: 5.4 ± 0.5 µM
  HepG2 SI (selectivity index): 2.5
[4]
  IC50: 6.6 ± 0.1 µM
  THP-1 SI (selectivity index): 2.1
[5]
  IC50: 9.4 ± 0.5 µM
  HeLa SI (selectivity index): 1.5
[7]
  IC50: 4.3 ± 0.3 µM
  A549 SI (selectivity index): 3.2
[8]
  IC50: 7.7 ± 0.4 µM
  HCT116 SI (selectivity index): 1.8
[9]
  IC50: 11.6 ± 0.3 µM
  MCF-7 SI (selectivity index): 1.2
